Values quoted from earlier work as cited in patent publication US20130137766A1, “Compound Used to Prevent Diseases Caused by Aquaporin Deficiency” (FU-JEN CATHOLIC UNIVERSITY, priority 2010, published 2013).

Test system: AQP-3
Details: EGF-treated groups

Question: Which “expression of AQP-3” value does the source give for “EGF: epidermal growth factor, literature comparator (Cong Cao et al.) (NSDSECPLSHDGYCLHDGVCMYIEALDKYACNCVVGYIGERCQYRDLKWWELR; UniProt P01133 971-1023, looked up)” here?
Answer: significantly increased

Question: What about the wound healing of the same substance?
Answer: wound healing was facilitated
